# Target: FAK kinase (catalytic construct FAK(410-689)) (Homo sapiens (Human), UniProt Q05397)
# Experiment: FAKcd kinase ELISA (inhibition of poly-glu-tyr phosphorylation by FAK(410-689))
# Format: biochemical
# Conditions: 50 μM final ATP
# Chain of FAK kinase (catalytic construct FAK(410-689)) (Q05397 410-689): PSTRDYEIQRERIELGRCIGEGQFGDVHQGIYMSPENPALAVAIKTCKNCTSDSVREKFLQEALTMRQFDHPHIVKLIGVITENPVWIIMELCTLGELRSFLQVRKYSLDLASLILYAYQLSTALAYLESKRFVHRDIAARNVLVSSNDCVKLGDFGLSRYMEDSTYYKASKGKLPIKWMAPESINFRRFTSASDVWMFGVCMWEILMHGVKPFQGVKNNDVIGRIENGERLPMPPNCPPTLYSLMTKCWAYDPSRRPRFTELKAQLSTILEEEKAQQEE
row,SMILES,IC50 [nM]
1,"CN(c1ncccc1CNc1nc(Nc2ccc(C(=O)NCC3CC3)cc2)ncc1C(F)(F)F)S(C)(=O)=O [Compound 252, N-(cyclopropylmethyl)-4-({4-[({2-[methyl(methylsulfonyl)amino}pyridin-3-yl}methyl)amino]-5-(trifluoromethyl)pyrimidin-2-yl}amino)benzamide]",1.48
2,"CN(c1cccc(CNc2nc(Nc3ccc(C(N)=O)c(O)c3)ncc2C(F)(F)F)c1)S(C)(=O)=O [Compound 396, 2-hydroxy-4-{[4-({3-[methyl(methylsulfonyl)amino]benzyl}amino)-5-(trifluoromethyl)pyrimidin-2-yl]amino}bertzamide]",3.13
3,"CN(c1ncccc1CNc1nc(Nc2cccc(C(=O)N3CC[C@@H](O)C3)c2)ncc1C(F)(F)F)S(C)(=O)=O [Compound 175, N-{3-[({2-[(3-{[(3R)-3-hydroxypyrrolidin-1-yl]carbonyl}phenyl)amino]-5-(trifluoromethyl)pyrimidin-4-yl}amino)methyl]pyridin-2-yl}-N-methyl-methanesulfonamide]",4.08
4,"CN(c1ncccc1CNc1nc(Nc2ccc(CNC(N)=O)cc2)ncc1C(F)(F)F)S(C)(=O)=O [Compound 216, N-{3-[({2-[(4-{[(aminocarbonyl)amino]-methyl}phenyl)amino]-5-(trifluoromethyl)pyrimidin-4-yl}amino)methyl]pyridin-2-yl}-N-methylmethane-sulfonamide]",0.6
5,"Cc1ccc(CNc2nc(Nc3ccc(S(C)(=O)=O)nc3)ncc2C(F)(F)F)c(N(C)S(C)(=O)=O)n1 [Compound 25, N-methyl-N-[6-methyl-3-({[2-{[6-(methylsulfonyl)pyridin-3-yl]amino}-5-(trifluoromethyl)pyrimidin-4-yl]amino}methyl)pyridin-2-yl]methanesulfonamide]",12.9
6,"CN(c1ncccc1CNc1nc(Nc2cccc(CO)c2)ncc1C(F)(F)F)S(C)(=O)=O [Compound 283, N-[3-({[2-{[3-(hydroxymethyl)phenyl]amino}-5-(trifluoromethyl)pyrimidin-4-yl]amino}methyl)pyridin-2-yl)-N-methylmethane-sulfonamide]",0.6
7,"COc1ccc(C(N)=O)cc1Nc1ncc(C(F)(F)F)c(NCc2cccnc2N(C)S(C)(=O)=O)n1 [Compound 304, 4-methoxy-3-({4-[({2-[methyl(methylsulfonyl)amino]pyridin-3-yl}methyl)amino]-5-(trifluoromethyl)pyrimidin-2-yl}amino)benzamide]",0.777
8,"CN(C)C(=O)c1ccc(Nc2ncc(C(F)(F)F)c(NCc3ccccc3N(C)S(C)(=O)=O)n2)cc1 [Compound 224, N,N-dimethyl-4-{[4-({2-[methyl(methylsulfonyl)amino]benzyl}amino)-5-(trifluoromethyl)pyrimidin-2-yl]amino}benzamide]",0.6
9,"CS(=O)(=O)c1cccc(CNc2nc(Nc3ccccc3)ncc2C(F)(F)F)c1 [Compound 46, N-4-(3-(methylsulfonyl)benzyl]-N-2-phenyl-5-(trifluoromethyl)pyrimidine-2,4-diamine]",1.02
10,"Cc1cc(Nc2ncc(C(F)(F)F)c(NCc3cccc(N(C)S(C)(=O)=O)c3)n2)ccc1C(N)=O [Compound 340, 2-methyl-4-{[4-({3-[methyl(methylsulfonyl)amino]benzyl}amino)-5-(trifluoromethyl)pyrimidin-2-yl]amino}benzamide]",< 0.595
11,"CN(c1ncccc1CNc1nc(Nc2ccc(C(=O)N3CCCC(O)C3)cc2)ncc1C(F)(F)F)S(C)(=O)=O (centres unmarked) [Compound 247, N-[3-({[2-({4-[(3-hydroxypiperidin-1-yl)carbonyl]phenyl}amino)-5-(trifluoromethyl)pyrimidin-4-yl]amino}methyl)pyridin-2-yl]-N-methylmethane-sulfonamide]",0.63
12,"CC(=O)c1cccc(Nc2ncc(C(F)(F)F)c(NCc3cccnc3N(C)S(C)(=O)=O)n2)c1 [Compound 312, N-{3-[({2-[(3-acetylphenyl)amino]-5-(trifluoromethyl)pyrimidin-4-yl}amino)methyl]pyridin-2-yl}-N-methylmethane-sulfonamide]",1.26
13,"CC(=O)NCCNC(=O)c1ccc(Nc2ncc(C(F)(F)F)c(NCc3cccnc3N(C)S(C)(=O)=O)n2)cc1 [Compound 245, N-[2-(acetylamino)ethyl]-4-({4-[({2-[methyl(methylsulfonyl)amino]pyridin-3-yl}methyl)amino]-5-(trifluoromethyl)pyrimidin-2-yl}amino)benzamide]",2.62
14,"CN(c1ncccc1CNc1nc(Nc2cccc(CN)c2)ncc1C(F)(F)F)S(C)(=O)=O [Compound 214, N-[3-({[2-{[3-(aminomethyl)phenyl]amino}-5-(trifluoromethyl)pyrimidin-4-yl]amino}methyl)pyridin-2-yl]-N-methylmethane-sulfonamide]",0.7
15,"CN(c1ncccc1CNc1nc(Nc2cccc(C(=O)N3CCOCC3)c2)ncc1C(F)(F)F)S(C)(=O)=O [Compound 123, N-methyl-N-[3-({(2-{[3-(morpholin-4-ylcarbonyl)phenyl]amino}-5-(trifluoromethyl)pyrimidin-4-yl]amino}methyl)pyridin-2-yl]methanesulfonamide]",2.15
16,"CC(=O)N1CCC(Nc2ncc(C(F)(F)F)c(NCc3cccnc3N(C)S(C)(=O)=O)n2)CC1 [Compound 45, N-{3-[({2-[(1-acetylpiperidin-4-yl)amino]-5-(trifluoromethyl)pyrimidin-4-yl}amino)methyl)pyridin-2-yl}-N-methylmethane-sulfonamide]",188
17,"CN(c1ncccc1CNc1nc(Nc2cccc(C(=O)N(CCO)CCO)c2)ncc1C(F)(F)F)S(C)(=O)=O [Compound 129, N,N-bis(2-hydroxyethyl)-3-({4-[({2-[methyl(methylsulfonyl)amino]pyridin-3-yl}methyl)amino]-5-(trifluoromethyl)pyrimidin-2-yl}amino)benzamide]",0.76
18,"CN(c1ncccc1CNc1nc(Nc2ccc(C(N)=O)c(Cl)c2)ncc1C(F)(F)F)S(C)(=O)=O [Compound 358, 2-chloro-4-({4-[({2-[methyl(methylsulfonyl)amino]pyridin-3-yl}methyl)amino]-5-(trifluoromethyl)pyrimidin-2-yl}amino)benzamide]",< 0.595
19,"CN(c1ncccc1CNc1nc(Nc2ccc(C(F)(F)F)nc2)ncc1C(F)(F)F)S(C)(=O)=O [Compound 81, N-methyl-N-[3-({[5-(trifluoromethyl)-2-{[6-(trifluoromethyl)pyridin-3-yl]amino}pyrimidin-4-yl]amino}methyl)pyridin-2-yl]methanesulfonamide]",15.8
20,"CN(c1ncccc1CNc1nc(Nc2ccc(C(N)=O)c(O)c2)ncc1C(F)(F)F)S(C)(=O)=O [Compound 394, 2-hydroxy-4-({4-[({2-[methyl(methylsulfonyl)amino)pyridin-3-yl}methyl)amino]-5-(trifluoromethyl)pyrimidin-2-yl}amino)benzamide]",< 0.595
